Assay results as given in patent US20230286956A1 (DUKSUNG WOMEN'S UNIVERSITY INDUSTRY-ACADEMIC COOPERATION …, priority 2020, published 2023).

How the values were obtained:
SH-SY5Y cell line = experiment: Cell viability (MTT assay) after MPP+ or rotenone; assay type: cell-based; details: 0.5 µM compound, then MPP+ (2 mM) or rotenone (2 µM) for 24 hours
Protocol: Specifically, the SH-SY5Y cell line was treated with 0.5 µM of Compound 1aaa (Compound 1), 1aca (Compound 24), lace (Compound 27), 1ahe (Compound 44) or 1aje (Compound 62) and then with MPP+ (2 mM) or rotenone (2 µM) for 24 hours. Cell viability in the case of being treated with each compound is illustrated in FIGS. 4 and 5.

MPTP-administered mice = experiment: Behavioral activity: beam test and challenge beam test in MPTP mice; assay type: in vivo; details: intraperitoneal 5 mg/kg
Protocol: In order to evaluate the behavioral activation by the compounds of the present invention, Compounds lace (Compound 27), 1ahe (Compound 44), and 1abv (Compound 22) were each intraperitoneally administered at a dose of 5 mg/kg for 1 week, then MPTP (15 mg/kg x 4 times) was injected. These compounds were additionally administered for 1 week. A beam test and a challenge beam test were conducted 1 day before and 2 days after MPTP administration, respectively. The results are illustrated in FIG. 12.
In order to evaluate the behavioral activation by the compounds of the present invention, Compounds 1ajs (Compound 63), 1ajy (Compound 67), and 1abw (Compound 23) were each intraperitoneally administered at a dose of 5 mg/kg for 1 week, then MPTP (15 mg/kg x 4 times) was injected. These compounds were additionally administered for 1 week. A beam test and a challenge beam test were conducted 2 days after MPTP administration. The results are illustrated in FIG. 13.

[1] = Single acute toxicity evaluation 2 (2000 mg/kg oral); assay type: in vivo, ICR mice
Protocol: Acute toxicity properties after single administration of the compounds of the present invention were evaluated in an animal model.

[2] = tested on: substantia nigra dopaminergic neurons; experiment: Inhibition of dopaminergic nerve cell death in MPTP animal model of Parkinson's disease (tyrosine hydroxylase immunostaining); assay type: in vivo, C57B16/J mice; details: for survival rate of dopaminergic neurons, of that in the control group: 1 week before and after MPTP
Protocol: The dopaminergic neuronal cell protecting effect of the compound of the present invention was evaluated in an animal model of Parkinson’s disease. The animal model used was 7-week-old C57B16/J mice (23 to 25 g), to which MPTP (15 mg/kg) was administered 4 times at 1.5 hour intervals. For 1 to 2 days after administration, behavior was noticeably slowed and gradually recovered. In 1 week after MPTP administration, behavior was almost normalized to a level similar to that of normal mice.
In order to evaluate the efficacy of the compounds of the present invention, Compounds 1aaa (Compound 1), lace (Compound 27), 1ahe (Compound 44) and 1aje (Compound 62) were each administered at a dose of 5 mg/kg for 1 week, then MPTP (15 mg/kg x 4 times) was injected. These compounds were additionally administered for 1 week, and then dopamine innervation in the substantia nigra region was analyzed through immunostaining.
Specifically, selegiline, 1aaa, lace, 1ahe, 1aje, and apocynin were administered at a dose of 5 mg/kg for 7 days, then MPTP (15 mg/kg x 4 times) was administered to induce damage to dopaminergic neurons. After 7 days of additional administration of the compounds at the same dose, the animals were sacrificed. Immunostaining was performed using tyrosine hydroxylase antibody to measure the survival rate of substantia nigra dopaminergic neurons. After immunostaining, the number of surviving dopaminergic neurons was analyzed. The results are illustrated in FIG. 8.
In order to evaluate the efficacy of the compounds of the present invention, Compounds 1abv (Compound 22), 1abw (Compound 23), and 1ahs (Compound 52) were each intraperitoneally administered at a dose of 5 mg/kg for 1 week or orally administered at a dose of 50 mg/kg, then MPTP (15 mg/kg x 4 times) was injected. These compounds were additionally administered for 1 week, and then dopamine innervation in the substantia nigra region was analyzed through immunostaining. The results are illustrated in FIG. 9.
In order to evaluate the dopaminergic neuroprotective effect of the compounds of the present invention, Compounds 1aja (Compound 59) and 1abk (Compound 17) were each intraperitoneally administered at a dose of 5 mg/kg for 1 week, then MPTP (15 mg/kg x 4 times) was injected. These compounds were additionally administered for 1 week. After immunostaining using brain slices from each group, surviving dopaminergic neurons were photographed under a microscope and analyzed. The results are illustrated in FIG. 10.
In order to evaluate the dopaminergic neuroprotective effect of the compounds of the present invention, Compounds 1ajs (Compound 63), 1ajy (Compound 67), and 1aqj (Compound 85) were each intraperitoneally administered at a dose of 5 mg/kg for 1 week, then MPTP (15 mg/kg x 4 times) was injected. These compounds were additionally administered for 1 week. After immunostaining using brain slices from each group, surviving dopaminergic neurons were photographed under a microscope and analyzed. The results are illustrated in FIG. 11.

[3] = tested on: wild-type red mold strain GZ3639; experiment: Inhibition of spore germination / reactive oxygen species generation through NOX enzyme inhibition in red mold; assay type: cell-based; details: 24 h, read-out: IC50 (µM), compound concentration at which the spore germination inhibition rate was 50%
Protocol: When NADPH oxidase (NOX), which is involved in the generation of reactive oxygen species in red mold, is inhibited, normal mycelial growth is inhibited, abnormal form of monocyclic conidia is formed, and germination is inhibited. The abnormal phenotype caused by the reduction of reactive oxygen species in red mold can be easily observed under an optical microscope. Through this, the ability to inhibit generation of reactive oxygen species through NOX inhibition was evaluated.
Specifically, for the evaluation of compound activity, 0.1 mM of the compound was added to a minimum medium (MM20) spore suspension diluted to ⅕. Spores ([…]) of wild-type red mold strain GZ3639 were inoculated into the medium and cultured at 25° C. for 24 h, followed by microscopic observation. Compounds having a germination inhibition rate and microcycle conidiation to be 50% or more of those in normal germination were selected, and their activities were evaluated at concentrations of 50 µM, 25 µM, and 10 µM. At this time, the activity of substances having a germination inhibition rate of 95% at 10 µM was further evaluated at concentrations of 5 µM, 1 µM, 0.5 µM, and 0.1 µM. Based on the result of this evaluation, the compound concentration (inhibitory concentration 50%, IC50) at which the spore germination inhibition rate was 50% was determined.

in vivo = experiment: in vivo; parameters: species or system SD rats; details: SD, rat, po
Protocol: The bioavailability (BA) and pharmacokinetic properties of the compounds of the present invention were evaluated in an animal model. The compounds were administered to 8-week-old SD rats (300 to 350 g) at a dose of 2 to 5 mg/kg through oral and intravenous administration routes. After administration, blood was collected at regular time intervals and the time course of blood concentration was analyzed.

[4] = Evaluation 2: beam test, 2 days after MPTP
[5] = Evaluation 1: beam test and challenge beam test
[6] = Evaluation 2: intraperitoneal 5 mg/kg or oral 50 mg/kg

CCCCCCN1C(=O)C(=Cc2cc(O)cc(O)c2)N(C)C1=[Se] [Compound 1aje]
cell viability / inhibition of cell death (SH-SY5Y cell line): significantly inhibit cell death

CCCCCCN1C(=O)C(=Cc2ccc(N3CCOCC3)cc2)N(C)C1=[Se] [Compound 1ajs]
reduction of time for mice to reach the home cage compared to MPTP administration group (MPTP-administered mice; [4]): about 50%
change in body weight ([1]; day 0): 100
change in body weight ([1]; day 2): 94.3
change in body weight ([1]; day 4): 91.9
change in body weight ([1]; day 8): 96.7
change in body weight ([1]; day 10): 101.6
change in body weight ([1]; day 14): 99.4

CCc1ccc(N2C(=O)C(=Cc3cc(O)cc(O)c3)N(C)C2=[Se])cc1 [lace]
survival rate of substantia nigra dopaminergic neurons, of that in the control group ([2]; Evaluation 1: 5 mg/kg for 7 days, MPTP 15 mg/kg x 4, 7 further days): 79.6%
reduction of time for mice to reach the home cage compared to MPTP administration group (MPTP-administered mice; [5]): ≥ 50%
cell viability / inhibition of cell death (SH-SY5Y cell line): significantly inhibit cell death

CN1C(=[Se])N(CCc2ccccc2)C(=O)C1=Cc1cc(O)cc(O)c1 [Compound 1ahe]
change in body weight ([1]; day 0): 100
change in body weight ([1]; day 2): 98.6
change in body weight ([1]; day 4): 100.9
change in body weight ([1]; day 8): 104.2
change in body weight ([1]; day 10): 105.5
change in body weight ([1]; day 14): 106.0
cell viability / inhibition of cell death (SH-SY5Y cell line): significantly inhibit cell death

CCCCCCN1C(=O)/C(=C\c2ccc(O)cc2O)N(C)C1=[Se] [Compound 59, 5-(2,4-dihydroxybenzylidene)-3-hexyl-1-methyl-2-selenoxoimidazolidine-4-on]
IC50 [3]: 0.68 µM
bioavailability (in vivo): 23%

CCCCCCN1C(=O)C(=Cc2ccc(NCCOCCF)cc2)N(C)C1=[Se] [Compound 1ajy]
survival rate of dopaminergic neurons, of that in the control group ([2]; Evaluations 3 and 4: intraperitoneal 5 mg/kg): 50.6%
reduction of time for mice to reach the home cage compared to MPTP administration group (MPTP-administered mice; [4]): about 50%

CCc1ccc(N2C(=O)C(=Cc3ccc(O)cc3O)N(C)C2=[Se])cc1 [Compound 1aca]
cell viability / inhibition of cell death (SH-SY5Y cell line): significantly inhibit cell death

Cc1ccc(N2C(=O)/C(=C\c3ccc(NCCOCCO)cc3)N(C)C2=[Se])cc1 [Compound 22, 5-(4-((2-(2-hydroxyethoxy)ethyl)amino)benzylidene)-1-methyl-2-selenoxo-3-(4-tolyl)imidazoline-4-on]
IC50 [3]: 2.3 µM
bioavailability (in vivo): 55%

Cc1ccc(N2C(=O)C(=Cc3ccc(NCCOCCO)cc3)N(C)C2=[Se])cc1 [Compound 1abv]
survival rate of dopaminergic neurons, of that in the control group [2, 6]: 67.8%
reduction of time for mice to reach the home cage compared to MPTP administration group (MPTP-administered mice; [5]): ≥ 50%
change in body weight ([1]; day 0): 100
change in body weight ([1]; day 2): 99.0
change in body weight ([1]; day 4): 100.0
change in body weight ([1]; day 8): 102.5
change in body weight ([1]; day 10): 103.4
change in body weight ([1]; day 14): 105.0

Cc1ccc(N2C(=O)C(=Cc3ccc(NCCN4CCOCC4)cc3)N(C)C2=[Se])cc1 [Compound 1abw]
survival rate of dopaminergic neurons, of that in the control group [2, 6]: 72.3%
reduction of time for mice to reach the home cage compared to MPTP administration group (MPTP-administered mice; [4]): about 50%

CN1C(=[Se])N(CCc2ccccc2)C(=O)/C1=C\c1cc(O)cc(O)c1 [Compound 44]
IC50 [3]: 1 µM
bioavailability (in vivo): 73%
